The text below walks through data of ChEMBL document CHEMBL1141850, “Glucosidation of betulinic acid by Cunninghamella species” (1999).

Holding throughout (assay type): functional
Settings in all cases: read-out: ED50 (the source's name)

Assay [1] is described as follows: Cytotoxicity against human MEL1 cells.
Assay [2] is described as follows: Cytotoxicity against human MEL2 cells.
A short description of assay [3]: Cytotoxicity against human MEL3 cells.
The nature of assay [4]: Cytotoxicity against human MEL7 cells.

≈ marks a conversion by molar mass, not a printed value. Some results are limits rather than exact numbers.

In the case of `C=C(C)[C@@H]1CC[C@]2(C(=O)O)CC[C@]3(C)[C@H](CC[C@@H]4[C@@]5(C)CC[C@H](O)C(C)(C)[C@@H]5CC[C@]43C)[C@@H]12` [BETULINIC ACID], the EC50 in assay [1] was found to be 1.4 µg/mL (≈ 3.07 µM); in assay [2] it was 1.2 µg/mL (≈ 2.63 µM); in assay [3], 1.8 µg/mL (≈ 3.94 µM); in assay [4], 4.4 µg/mL (≈ 9.63 µM).

Regarding `C=C(C)[C@@H]1CC[C@]2(C(=O)O[C@@H]3O[C@H](CO)[C@@H](O)[C@H](O)[C@H]3O)CC[C@]3(C)[C@H](CC[C@@H]4[C@@]5(C)CC[C@H](O)C(C)(C)[C@@H]5CC[C@]43C)[C@@H]12`, the EC50 in assay [1], in assay [2], in assay [3] and in assay [4] was more than 20 µg/mL in each case.
